Test results published in ChEMBL document CHEMBL1146662, “Novel inhibitors of bacterial protein synthesis: structure-activity relationships for 1,8-naphthyridine derivatives incorporating position 3 and 4 variants” (Bioorg Med Chem Lett, 2004).
pIC50: −log10 of the molar value. Converted amounts (≈) assume the structure as drawn.

Tested on: Streptococcus pneumoniae
Assay: Antibacterial activity against Quinolone-resistant Streptococcus pneumoniae 7257
Type: functional
In the case of `O=C(O)c1cnc2nc(N3CCCC3)c(F)cc2c1O`, the MIC was 4 mg/L (≈ 14.4 µM). Work on `NC1CCN(c2nc3ncc(C(=O)O)c(O)c3cc2F)C1` (configuration not stated) yielded an MIC of 32 mg/L (≈ 109 µM).

Target: not listed separately
Assay: Inhibitory concentration against luciferase synthesis in Streptococcus pneumoniae
Type: functional
Work on `O=C(O)CNc1ccnc2nc(N3CCCC3)c(F)cc12` yielded a pIC50 of under 4.00. For `O=Cc1cnc2nc(N3CCCC3)c(F)cc2c1O`, the pIC50 was under 4.00. Work on `NC(=O)c1cnc2nc(N3CCC(N)C3)c(F)cc2c1O` (configuration not stated) yielded a pIC50 of 4.64. `CC(C)CCNC(=O)c1cnc2nc(N3CCC(N)C3)c(F)cc2c1O` (configuration not stated) gave a pIC50 of 4.60. In the case of `OCc1cnc2nc(N3CCCC3)c(F)cc2c1O`, the pIC50 was under 4.00. For `O=C(NO)c1cnc2nc(N3CCCC3)c(F)cc2c1O`, the pIC50 was under 4.00. `CCOC(=O)c1cnc2nc(N3CCC(N)C3)c(F)cc2c1O` (configuration not stated) gave a pIC50 of 4.70. With `CC(C)NC(=O)c1cnc2nc(N3CCC(N)C3)c(F)cc2c1O` (configuration not stated) the pIC50 was under 4.00. For `NCCNc1ccnc2nc(N3CCCC3)c(F)cc12`, the pIC50 was 4.96. In the case of `Oc1ccnc2nc(N3CCCC3)c(F)cc12`, the pIC50 was under 4.00. `CCN(CC)CCCNCc1cnc2nc(N3CCC(N)C3)c(F)cc2c1O` (configuration not stated) showed a pIC50 of 5.00. With `CN(C)CCNCc1cnc2nc(N3CCCC3)c(F)cc2c1O` the pIC50 was under 4.00. For `CC(C)CCN(C)C(=O)c1cnc2nc(N3CCC(N)C3)c(F)cc2c1O` (configuration not stated), the pIC50 was under 4.00. With `NC(=O)CNc1ccnc2nc(N3CCCC3)c(F)cc12` the pIC50 was 4.09. In the case of `NNc1ccnc2nc(N3CCCC3)c(F)cc12`, the pIC50 was 4.05. `CC(Nc1ccnc2nc(N3CCCC3)c(F)cc12)c1ccccc1` (configuration not stated) gave a pIC50 of under 4.00. For `O=C(O)c1cnc2nc(N3CCCC3)c(F)cc2c1O`, the pIC50 was 5.00. Compound `Oc1c(CNc2ccccc2)cnc2nc(N3CCCC3)c(F)cc12` has a pIC50 of under 4.00. `CN(C)CCN(C)c1ccnc2nc(N3CCCC3)c(F)cc12` gave a pIC50 of 4.74. Compound `NC1CCN(c2nc3ncc(CNc4ccccc4)c(O)c3cc2F)C1` (configuration not stated) has a pIC50 of 4.27. Work on `NC1CCN(c2nc3ncc(CNCCCc4ccccc4)c(O)c3cc2F)C1` (configuration not stated) yielded a pIC50 of 5.00. `Fc1cc2c(N3CCNCC3)ccnc2nc1N1CCCC1` gave a pIC50 of under 4.00. `CCCNc1ccnc2nc(N3CCCC3)c(F)cc12` gave a pIC50 of 4.72. For `NC1CCN(c2nc3ncc(C(=O)O)c(O)c3cc2F)C1` (configuration not stated), the pIC50 was 5.30. In the case of `Oc1c(CNCc2ccccc2)cnc2nc(N3CCCC3)c(F)cc12`, the pIC50 was under 4.00. `CC(=O)c1cnc2nc(N3CCC(N)C3)c(F)cc2c1O` (configuration not stated) gave a pIC50 of 4.30. In the case of `CCOC(=O)c1cnc2nc(N3CCCC3)c(F)cc2c1O`, the pIC50 was under 4.00. For `NC1CCN(c2nc3ncc(CNCc4ccccc4)c(O)c3cc2F)C1` (configuration not stated), the pIC50 was 4.60. For `COCCNc1ccnc2nc(N3CCCC3)c(F)cc12`, the pIC50 was 4.41. With `OCCNc1ccnc2nc(N3CCCC3)c(F)cc12` the pIC50 was 4.04.

Tested on: Haemophilus influenzae
Assay: Antibacterial activity against Haemophilus influenzae GYR 1435
Type: functional
In the case of `C[C@H]1COc2c(N3CCN(C)CC3)c(F)cc3c(=O)c(C(=O)O)cn1c23.C[C@H]1COc2c(N3CCN(C)CC3)c(F)cc3c(=O)c(C(=O)O)cn1c23.O` [LEVOFLOXACIN], the MIC was 0.015 mg/L. In the case of `O=C(O)c1cnc2nc(N3CCCC3)c(F)cc2c1O`, the MIC was 1 mg/L (≈ 3.61 µM). `NC1CCN(c2nc3ncc(C(=O)O)c(O)c3cc2F)C1` (configuration not stated) showed an MIC of 4 mg/L (≈ 13.7 µM).

Tested on: Escherichia coli
Assay: Antibacterial activity against Escherichia coli
Type: functional
Work on `NCCNc1ccnc2nc(N3CCCC3)c(F)cc12` yielded an MIC of over 128 mg/L.

Tested on: Escherichia coli
Assay: Antibacterial activity against Escherichia coli in presence of permeabilizer and EDTA
Type: functional
`NCCNc1ccnc2nc(N3CCCC3)c(F)cc12` showed an MIC of 32 mg/L.
